From PubChem BioAssay AID248 (DTP/NCI, 2004)
Inconclusive results and toxic doses are left out. Cut-off read from the data, not from the text of the source: active = T/C of 150% or more; inactive = T/C below 125%.

Tested on: L1210 leukemia ip in BDF1 mice, survival T/C
Assay: NCI In Vivo Anticancer Drug Screen. Data for tumor model L1210 Leukemia (intraperitoneal) in B6D2F1 (BDF1) mice
Conditions: endpoint: mean survival time, higher = longer survival
Procedure, shortened: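 Each compound was tested against a transplantable tumor grown in mice. The endpoint was survival, with treated animals benchmarked against vehicle controls as a simple ratio.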

[1] = dose: 200.0 mg/kg/injection, schedule: Q04DX002 (ip), vehicle: saline with Tween-80
[2] = dose: 50.0 mg/kg/injection, schedule: Q01DX009 (ip), vehicle: Klucel (hydroxypropylcellulose) (HPC)
[3] = dose: 100.0 mg/kg/injection, schedule: Q04DX003 (ip), vehicle: Klucel (hydroxypropylcellulose) (HPC)
[4] = dose: 100.0 mg/kg/injection, schedule: Q01DX001 (ip), vehicle: saline
[5] = dose: 200.0 mg/kg/injection, schedule: Q01DX001 (ip), vehicle: saline
[6] = dose: 100.0 mg/kg/injection, schedule: Q01DX009 (ip), vehicle: Klucel (hydroxypropylcellulose) (HPC)
[7] = dose: 200.0 mg/kg/injection, schedule: Q01DX009 (ip), vehicle: Klucel (hydroxypropylcellulose) (HPC)
[8] = dose: 400.0 mg/kg/injection, schedule: Q01DX009 (ip), vehicle: Klucel (hydroxypropylcellulose) (HPC)
[9] = dose: 400.0 mg/kg/injection, schedule: Q01DX001 (ip), vehicle: saline

Measured: T/C

CC[CH2][Pb]([CH2]CC)([CH2]CC)[O]C(=O)C1CCCCC1
inactive: dose: 1.5 mg/kg/injection, schedule: Q01DX009 (ip), vehicle: saline with Tween-80 100 % of control | dose: 1.5 mg/kg/injection, schedule: Q04DX003 (ip), vehicle: saline with Tween-80 106 % of control | dose: 3.0 mg/kg/injection, schedule: Q01DX009 (ip), vehicle: saline with Tween-80 100 % of control | dose: 3.0 mg/kg/injection, schedule: Q04DX003 (ip), vehicle: saline with Tween-80 116 % of control | dose: 6.0 mg/kg/injection, schedule: Q01DX009 (ip), vehicle: saline with Tween-80 104 % of control | dose: 6.0 mg/kg/injection, schedule: Q04DX003 (ip), vehicle: saline with Tween-80 104 % of control

CC(C)(F)C(Br)C(=O)O (configuration not stated)
inactive: [1] 93 % of control

C1=CC23C4CCC2C2C4C4C(=C1)C3C2N1CCCCC41 (configuration not stated)
inactive: dose: 12.5 mg/kg/injection, schedule: Q04DX003 (ip), vehicle: Klucel (hydroxypropylcellulose) (HPC) 98 % of control | dose: 25.0 mg/kg/injection, schedule: Q01DX009 (ip), vehicle: Klucel (hydroxypropylcellulose) (HPC) 105 % of control | dose: 25.0 mg/kg/injection, schedule: Q04DX003 (ip), vehicle: Klucel (hydroxypropylcellulose) (HPC) 104 % of control | [2] 103 % of control | dose: 50.0 mg/kg/injection, schedule: Q04DX003 (ip), vehicle: Klucel (hydroxypropylcellulose) (HPC) 96 % of control | [3] 107 % of control

CCOC(=O)CNC(=O)OCCOc1ccccc1Cl
inactive: dose: 100.0 mg/kg/injection, schedule: Q01DX009 (ip), vehicle: saline with Tween-80 94 % of control | dose: 200.0 mg/kg/injection, schedule: Q01DX009 (ip), vehicle: saline with Tween-80 98 % of control | dose: 400.0 mg/kg/injection, schedule: Q01DX009 (ip), vehicle: saline with Tween-80 100 % of control

CCc1occ(C(=O)N2Cc3cc4ccccc4nc3C2)c1C1SCCS1
inactive: [4] 89 % of control | [5] 92 % of control

CC(=O)Oc1ccc(CCN(Cc2ccc3c(c2)OCO3)C(C)=O)cc1
inactive: dose: 50.0 mg/kg/injection, schedule: Q04DX002 (ip), vehicle: Klucel (hydroxypropylcellulose) (HPC) 97 % of control | dose: 100.0 mg/kg/injection, schedule: Q04DX002 (ip), vehicle: Klucel (hydroxypropylcellulose) (HPC) 91 % of control | dose: 200.0 mg/kg/injection, schedule: Q04DX002 (ip), vehicle: Klucel (hydroxypropylcellulose) (HPC) 97 % of control

CS(=O)(=O)c1ccc(/C=C2/C=Cc3ccccc32)cc1
inactive: [6] 95 % of control | [3] 96 % of control | [7] 103 % of control | dose: 200.0 mg/kg/injection, schedule: Q04DX003 (ip), vehicle: Klucel (hydroxypropylcellulose) (HPC) 96 % of control | [8] 95 % of control | dose: 400.0 mg/kg/injection, schedule: Q04DX003 (ip), vehicle: Klucel (hydroxypropylcellulose) (HPC) 98 % of control

N#CCCC(=O)c1ccccn1
inactive: [7] 100 % of control | [8] 93 % of control

O=C(Nc1ccc(C2=NCCN2)cc1)Nc1cc(NC(=O)Nc2ccc(C3=NCCN3)cc2)cc(C(=O)O)c1
inactive: dose: 120.0 mg/kg/injection, schedule: Q01DX Z (ip), vehicle: carboxymethylcellulose (CMC) 106 % of control | dose: 240.0 mg/kg/injection, schedule: Q01DX Z (ip), vehicle: carboxymethylcellulose (CMC) 102 % of control | dose: 250.0 mg/kg/injection, schedule: Q01DX Z (ip), vehicle: water 93 % of control | dose: 500.0 mg/kg/injection, schedule: Q01DX Z (ip), vehicle: water 94 % of control

CCC1CC(O)c2c(O)c3c(c(O)c2C1O)C(=O)c1cccc(O)c1C3=O (configuration not stated) (tested in a mixture with another compound)
inactive: dose: 0.25 mg/kg/injection, schedule: Q01DX015 (ip), vehicle: carboxymethylcellulose (CMC) 101 % of control | dose: 0.5 mg/kg/injection, schedule: Q01DX015 (ip), vehicle: carboxymethylcellulose (CMC) 101 % of control | dose: 3.12 mg/kg/injection, schedule: Q01DX001 (ip), vehicle: carboxymethylcellulose (CMC) 93 % of control

CC(C)c1ccc(C(C2C(=O)CC(C)(C)CC2=O)C2C(=O)CC(C)(C)CC2=O)cc1
inactive: [4] 103 % of control | [5] 109 % of control | [9] 107 % of control

CCOc1ccc(Nc2ncnc3nc[nH]c23)cc1CN(CCCl)C(C)CCl (configuration not stated)
inactive: dose: 1.0 mg/kg/injection, schedule: Q01DX Z (ip), vehicle: saline 112 % of control | dose: 2.0 mg/kg/injection, schedule: Q01DX Z (ip), vehicle: saline 111 % of control | dose: 4.0 mg/kg/injection, schedule: Q01DX Z (ip), vehicle: saline 97 % of control

CCOC(=O)Nc1cc(N)cc(NC(=O)OCC)c1
inactive: [2] 101 % of control | [6] 104 % of control | [7] 106 % of control

CC(C)CCC(C)(C)C1=CC(=O)C=CC1=O
inactive: dose: 100.0 mg/kg/injection, schedule: Q04DX002 (ip), vehicle: saline with Tween-80 93 % of control | [1] 90 % of control | dose: 400.0 mg/kg/injection, schedule: Q04DX002 (ip), vehicle: saline with Tween-80 93 % of control

CC1(C)OC2COC3(COC(C)(C)O3)C(O)C2O1 (configuration not stated)
inactive: dose: 100.0 mg/kg/injection, schedule: Q04DX002 (ip), vehicle: saline 96 % of control | dose: 200.0 mg/kg/injection, schedule: Q04DX002 (ip), vehicle: saline 100 % of control | dose: 400.0 mg/kg/injection, schedule: Q04DX002 (ip), vehicle: saline 104 % of control

CCOP(=O)(O)Cc1c(Cl)c(Cl)c(CP(=O)(O)OCC)c(Cl)c1Cl
inactive: [4] 110 % of control | [5] 104 % of control | [9] 107 % of control

O=C(C[N+]12CN3CN(CN(C3)C1)C2)c1ccc(Br)cc1
inactive: dose: 100.0 mg/kg/injection, schedule: Q01DX005 (ip), vehicle: Klucel (hydroxypropylcellulose) (HPC) 103 % of control | [6] 111 % of control | dose: 200.0 mg/kg/injection, schedule: Q01DX005 (ip), vehicle: Klucel (hydroxypropylcellulose) (HPC) 109 % of control | [7] 107 % of control | dose: 400.0 mg/kg/injection, schedule: Q01DX005 (ip), vehicle: Klucel (hydroxypropylcellulose) (HPC) 111 % of control

CN1CCCC1c1ccc(Br)cc1 (configuration not stated)
inactive: dose: 100.0 mg/kg/injection, schedule: Q01DX001 (ip), vehicle: acetone 95 % of control

CC(=O)CC(=O)N1CCN(C(=O)CC(C)=O)CC1
inactive: dose: 100.0 mg/kg/injection, schedule: Q01DX009 (ip), vehicle: saline 100 % of control | dose: 200.0 mg/kg/injection, schedule: Q01DX009 (ip), vehicle: saline 96 % of control | dose: 400.0 mg/kg/injection, schedule: Q01DX009 (ip), vehicle: saline 100 % of control

Cc1cccc(Cl)c1NC(=S)N1CCCC1
inactive: [6] 94 % of control | [7] 94 % of control | [8] 96 % of control

Cc1ccc(C2NC(=S)N3C(c4ccc(C)cc4)NC(=S)N23)cc1 (configuration not stated)
inactive: dose: 100.0 mg/kg/injection, schedule: Q01DX009 (ip), vehicle: gum acacia 105 % of control | dose: 100.0 mg/kg/injection, schedule: Q04DX003 (ip), vehicle: gum acacia 95 % of control | dose: 200.0 mg/kg/injection, schedule: Q01DX009 (ip), vehicle: gum acacia 100 % of control | dose: 200.0 mg/kg/injection, schedule: Q04DX003 (ip), vehicle: gum acacia 90 % of control | dose: 400.0 mg/kg/injection, schedule: Q01DX009 (ip), vehicle: gum acacia 91 % of control | dose: 400.0 mg/kg/injection, schedule: Q04DX003 (ip), vehicle: gum acacia 95 % of control
